Results on 4 compounds are retold here after paper PMC9849163, “Characterisation of AMB-FUBINACA metabolism and CB1-mediated activity of its acid metabolite” (Forensic Toxicology, 2022).

Series [1] deals with T1, CES1 (carboxylesterase 1, CES1A1) (Homo sapiens, UniProt P23141).
T1 construct: CES1 isoform b (CES1b/CES1A1) human recombinant
T1 sequence (P23141 18-567): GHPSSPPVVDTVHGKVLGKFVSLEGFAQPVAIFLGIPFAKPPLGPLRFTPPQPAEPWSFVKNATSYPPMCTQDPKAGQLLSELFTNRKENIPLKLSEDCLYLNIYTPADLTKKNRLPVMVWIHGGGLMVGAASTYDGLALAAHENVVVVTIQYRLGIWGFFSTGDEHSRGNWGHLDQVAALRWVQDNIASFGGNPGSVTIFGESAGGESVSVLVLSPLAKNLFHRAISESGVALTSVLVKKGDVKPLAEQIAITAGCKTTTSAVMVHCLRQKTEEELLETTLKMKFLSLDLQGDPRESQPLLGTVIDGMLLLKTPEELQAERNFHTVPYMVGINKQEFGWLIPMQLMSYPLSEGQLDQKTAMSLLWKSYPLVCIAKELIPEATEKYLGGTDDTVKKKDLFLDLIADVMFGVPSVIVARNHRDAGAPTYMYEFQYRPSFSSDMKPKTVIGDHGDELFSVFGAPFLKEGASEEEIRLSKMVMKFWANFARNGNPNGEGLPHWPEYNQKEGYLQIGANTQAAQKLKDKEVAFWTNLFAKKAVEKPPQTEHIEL
Kind of series: product of AMB-FUBINACA hydrolysis by recombinant CES1, HPLC-DAD. It counts as biochemical.

Series [2] deals with T2, cannabinoid type-1 receptor (CB1) (Homo sapiens, UniProt P21554).
T2 construct: gene CNR1; 3HA-tagged human CB1 in HEK293 cells
T2 sequence (P21554 whole entry): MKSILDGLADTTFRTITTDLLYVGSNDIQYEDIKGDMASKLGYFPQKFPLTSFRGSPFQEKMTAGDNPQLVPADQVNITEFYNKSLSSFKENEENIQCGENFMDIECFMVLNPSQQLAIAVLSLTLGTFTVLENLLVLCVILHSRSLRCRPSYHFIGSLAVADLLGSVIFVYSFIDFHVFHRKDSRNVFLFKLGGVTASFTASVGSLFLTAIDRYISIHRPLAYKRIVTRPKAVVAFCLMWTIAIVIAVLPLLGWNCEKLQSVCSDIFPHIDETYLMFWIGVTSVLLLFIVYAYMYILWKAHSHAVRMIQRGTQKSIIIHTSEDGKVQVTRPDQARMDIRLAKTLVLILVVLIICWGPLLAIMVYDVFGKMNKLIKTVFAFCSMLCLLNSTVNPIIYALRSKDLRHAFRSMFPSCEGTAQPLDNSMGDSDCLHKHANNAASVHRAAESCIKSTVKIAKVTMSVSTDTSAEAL
Kind of series: BRET CAMYEL cAMP inhibition assay (agonism); also weak radioligand displacement ([…] at […]). Format: cell-based. (In general: BRET reads energy transfer from a luciferase to a nearby fluorophore.)

Series [3] concerns the target T2, cannabinoid type-1 receptor (CB1). Description: BRET CAMYEL cAMP inhibition assay (agonism) in HEK293 cells stably expressing 3HA-hCB1. It counts as cell-based.
Series [4] deals with T1, CES1 (carboxylesterase 1, CES1A1). Description: hydrolysis by recombinant CES1, HPLC-DAD time course (t1/[…] s at […]). It counts as biochemical.
Series [5] concerns the target T3, CES2 (carboxylesterase-2) (Homo sapiens, UniProt O00748).
T3 construct: carboxylesterase-2 (CES2) human recombinant
T3 sequence (O00748 27-559): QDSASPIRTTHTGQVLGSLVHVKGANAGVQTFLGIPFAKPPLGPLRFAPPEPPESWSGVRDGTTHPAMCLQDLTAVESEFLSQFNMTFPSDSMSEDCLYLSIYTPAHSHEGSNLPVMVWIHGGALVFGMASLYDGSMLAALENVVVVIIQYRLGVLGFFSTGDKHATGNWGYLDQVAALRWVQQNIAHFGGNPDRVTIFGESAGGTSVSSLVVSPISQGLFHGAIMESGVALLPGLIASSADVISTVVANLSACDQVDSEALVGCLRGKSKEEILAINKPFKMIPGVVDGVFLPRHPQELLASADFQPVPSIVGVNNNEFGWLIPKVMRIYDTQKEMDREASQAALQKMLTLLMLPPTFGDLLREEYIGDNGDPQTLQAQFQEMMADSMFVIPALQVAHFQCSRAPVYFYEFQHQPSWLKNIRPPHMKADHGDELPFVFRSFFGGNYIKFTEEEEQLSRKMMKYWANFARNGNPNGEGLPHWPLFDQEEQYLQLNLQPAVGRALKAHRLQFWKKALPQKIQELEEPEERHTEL
Description: p-nitrophenol formation by recombinant CES2, absorbance at […] nm. It counts as biochemical.

The target of series [6] is T1, CES1 (carboxylesterase 1, CES1A1). Description: p-nitrophenol formation by recombinant CES1, absorbance at […] nm. It counts as biochemical.
The target is the same in series [7]. Description: inhibition of PNPA hydrolysis by recombinant CES1, absorbance at […] nm. It counts as biochemical. The settings on record: read-out: % of control velocity at 50 μM.
Series [8] deals with T3, CES2 (carboxylesterase-2). Kind of series: inhibition of PNPA hydrolysis by recombinant CES2, absorbance at […] nm. Format: biochemical. The settings on record: read-out: % of control velocity at 50 μM.

What is called EC50 is the concentration needed to bring the measured effect to its halfway point. A high value points to weaker potency. On to `CC(C)[C@H](NC(=O)c1nn(Cc2ccc(F)cc2)c2ccccc12)C(=O)O` [AMB-FUBINACA acid, methyl (2S)-2-((1-((4-fluorophenyl)methyl]indazole-3-carbonyl)amino)-3-methylbutanoic acid], for which, in series [1], the “product of AMB-FUBINACA hydrolysis by recombinant CES1, HPLC-DAD” value was “No metabolites other than AMB-FUBINACA acid were generated”. The compound also had an EC50 in series [2] of 447 nM.
As a reminder, the half-life is the time needed for the level to fall by half in the phase considered. With `COC(=O)[C@@H](NC(=O)c1nn(Cc2ccc(F)cc2)c2ccccc12)C(C)C` [AMB-FUBINACA, methyl (2S)-2-((1-((4-fluorophenyl)methyl)indazole-3-carbonyl)amino)-3-methylbutanoate], the 50% effective concentration (EC50) in series [3] was 0.148 nM. Moreover, the half-life at 3 µM in series [4] is 2 min.
As to `CC(=O)Oc1ccc([N+](=O)[O-])cc1` [p-nitrophenyl acetate], the “p-nitrophenol formation by recombinant CES2, absorbance at 405 nm” value in series [5] amounted to 221 nmol/min/mg. In series [6], the “p-nitrophenol formation by recombinant CES1, absorbance at 405 nm” value was determined as 296 nmol/min/mg.
Consider `CCCc1nc2c(C)cc(-c3nc4ccccc4n3C)cc2n1Cc1ccc(-c2ccccc2C(=O)O)cc1` [telmisartan], for which the remaining activity at 50 µM in series [7] is 71%; in series [8], 58.2%.
